According to patent US7446102B2, “Antibacterial amide macrocycles IV” (priority 2004, dated 2008):
Counter-ions that a name gives are not always drawn.

Key:
[1] = target: S. aureus 133 translation; assay: S. aureus in vitro transcription-translation assay (firefly luciferase, S30 extract); assay type: biochemical; conditions: 50% inhibition of the translation of firefly luciferase
Text: In Vitro Transcription-Translation with S. aureus Extracts
Construction of an S. aureus Luciferase Reporter Plasmid
For the construction of a reporter plasmid which can be used in an in vitro transcription-translation assay from S. aureus the plasmid pBESTluc (Promega Corporation, USA) is used. The E. coli tac promoter present in this plasmid in front of the firefly luciferase is replaced by the capA1 promoter with appropriate Shine-Dalgarno sequence from S. aureus. The primers CAPFor 5′-[…] […] […]-3′ and CAPRev 5′-[…]-3′ are used for this. The primer CAPFor contains the capA1 promoter, the ribosome binding site and the 5′ region of the luciferase gene. After PCR using pBESTluc as template it is possible to isolate a PCR product which contains the firefly luciferase gene with the fused capA1 promoter. This is, after restriction with ClaI and HindIII, ligated into the vector pBESTluc which has likewise been digested with ClaI and HindIII. The resulting plasmid p1a is able to replicate in E. coli and be used as template in the S. aureus in vitro transcription-translation assay.
Preparation of S30 Extracts from S. aureus
Six liters of BHI medium are inoculated with a 250 ml overnight culture of an S. aureus strain and allowed to grow at 37° C. until the OD600 nm is 2-4. The cells are harvested by centrifugation and washed in 500 ml of cold buffer A (10 mM Tris acetate, pH 8.0, 14 mM magnesium acetate, 1 mM DTT, 1 M KCl). After renewed centrifugation, the cells are washed in 250 ml of cold buffer A with 50 mM KCl, and the resulting pellets are frozen at −20° C. for 60 min. The pellets are thawed on ice in 30 to 60 min and taken up in buffer B (10 mM Tris acetate, pH 8.0, 20 mM magnesium acetate, 1 mM DTT, 50 mM KCl) up to a total volume of 99 ml. 1.5 ml portions of lysostaphin (0.8 mg/ml) in buffer B are introduced into 3 precooled centrifuge cups and each is mixed with 33 ml of the cell suspension. The samples are incubated at 37° C., shaking occasionally, for 45 to 60 min, before 150 μl of a 0.5 M DTT solution are added. The lysed cells are centrifuged at 30 000×g and 4° C. for 30 min. The cell pellet is taken up in buffer B and then centrifuged again under the same conditions, and the collected supernatants are combined. The supernatants are centrifuged again under the same conditions, and 0.25 volumes of buffer C (670 mM Tris acetate, pH 8.0, 20 mM magnesium acetate, 7 mM Na3 phosphoenolpyruvate, 7 mM DTT, 5.5 mM ATP, 70 μM amino acids (complete from Promega), 75 μg of pyruvate kinase (Sigma, Germany))/ml are added to the upper ⅔ of the supernatant. The samples are incubated at 37° C. for 30 min. The supernatants are dialysed against 21 of dialysis buffer (10 mM Tris acetate, pH 8.0, 14 mM magnesium acetate, 1 mM DTT, 60 mM potassium acetate) in a dialysis tube with a 3500 Da cut-off with one buffer change at 4° C. overnight. The dialysate is concentrated to a protein concentration of about 10 mg/ml by covering the dialysis tube with cold PEG 8000 powder (Sigma, Germany) at 4° C. The S30 extracts can be stored in aliquots at −70° C.
Determination of the IC50 in the S. aureus In Vitro Transcription-Translation Assay
Inhibition of protein biosynthesis of the compounds can be shown in an in vitro transcription-translation assay. The assay is based on the cell-free transcription and translation of firefly luciferase using the reporter plasmid p1a as template and cell-free S30 extracts obtained from S. aureus. The activity of the resulting luciferase can be detected by luminescence measurement.
The amount of S30 extract or plasmid p1a respectively to be employed must be tested anew for each preparation in order to ensure an optimal concentration in the assay. 3 μl of the substance to be tested, dissolved in 5% DMSO, are introduced into an MTP. Then 10 μl of a suitably concentrated plasmid solution p1a are added. […]

S. aureus RN4220 = assay: Isolation of biphenomycin-resistant strain from S. aureus RN4220: resistance rate on biphenomycin B agar; assay type: cell-based; conditions: S. aureus RN4220 on agar plate containing 2 μg/ml biphenomycin B (10×MIC), 37° C. overnight
Method: Isolation of the Biphenomycin-Resistant S. aureus Strains RN4220Bi^R and T17
(§1) The S. aureus strain RN4220Bi^R is isolated in vitro. For this purpose, 100 μl portions of an S. aureus RN4220 cell suspension (about 1.2×10^8 cfu/ml) are plated out on an antibiotics-free agar plate (18.5 mM Na2HPO4, 5.7 mM KH2PO4, 9.3 mM NH4Cl, 2.8 mM MgSO4, 17.1 mM NaCl, 0.033 μg/ml thiamine hydrochloride, 1.2 μg/ml nicotinic acid, 0.003 μg/ml biotin, 1% glucose, 25 μg/ml of each proteinogenic amino acid with the addition of 0.4% BH broth and 1% agarose) and on an agar plate containing 2 μg/ml biphenomycin B (10×MIC), and incubated at 37° C. overnight. Whereas about 1×10^7 cells grow on the antibiotics-free plate, about 100 colonies grow on the antibiotics-containing plate, corresponding to a resistance rate of 1×10^−5. Some of the colonies grown on the antibiotics-containing plate are tested for the biphenomycin B MIC. One colony with an MIC of >50 μM is selected for further use, and the strain is referred to as RN4220Bi^R.

S. aureus RN4220Bi^R = assay: MIC on biphenomycin-resistant S. aureus RN4220Bi^R; assay type: cell-based; conditions: Staphylococcus aureus, read-out: MIC, selected colony (strain RN4220Bi^R)
Method: as §1

Q: For `NC[C@H](O)C[C@@H]1NC(=O)[C@@H](N)Cc2cc(ccc2O)-c2ccc(O)c(c2)C[C@@H](C(=O)O)NC1=O` [Example 20A, 14(S)-Amino-11(S)-(3-amino-2(R)-hydroxypropyl)-5,17-dihydroxy-10,13-dioxo-9,12-diazatricyclo[14.3.1.1^2,6]henicosa-1(19),2,4,6(21),16(20),17-hexaene-8(S)-carboxylic acid dihydrochloride, reference compound], which IC50 [1] is on record?
A: 1.5 µM

Q: What about the resistance rate (S. aureus RN4220) of the same compound?
A: 1×10^−5

Q: And the MIC (S. aureus RN4220Bi^R)?
A: > 50 µM
